Read-outs that look alike come from different tables or passages of the source.
Columns and labels:
Parameters in all cases: dose or concentration left out as unconfirmed
CCR1 = biological target: T1, CCR1 (Homo sapiens, UniProt P32246); assay: Figure S2a opioid peptide screen on chemokine receptors; assay type: cell-based
T1 construct: expressed in transfected cells
T1 sequence (P32246 1-355): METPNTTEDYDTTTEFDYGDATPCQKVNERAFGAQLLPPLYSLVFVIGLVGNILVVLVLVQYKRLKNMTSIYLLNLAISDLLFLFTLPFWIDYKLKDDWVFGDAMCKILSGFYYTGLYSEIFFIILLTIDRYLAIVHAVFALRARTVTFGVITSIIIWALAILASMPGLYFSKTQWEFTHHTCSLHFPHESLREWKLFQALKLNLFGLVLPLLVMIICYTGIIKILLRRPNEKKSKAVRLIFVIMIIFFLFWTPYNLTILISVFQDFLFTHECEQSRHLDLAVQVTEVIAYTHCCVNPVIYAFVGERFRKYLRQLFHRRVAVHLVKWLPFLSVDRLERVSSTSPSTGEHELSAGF

CCR5 = biological target: T2, CCR5 (Homo sapiens, UniProt P51681); assay: as above; assay type: cell-based
T2 construct: expressed in transfected cells

CCR8 = CCR8 (Homo sapiens, UniProt P51685); assay: as above; conditions: read-out: CCR8 activity, ctrl+ = 100, Figure S2a
CXCR5 = biological target: T3, CXCR5 (Homo sapiens, UniProt P32302); assay: as above; assay type: cell-based
T3 construct: expressed in transfected cells
T3 sequence (P32302 1-372): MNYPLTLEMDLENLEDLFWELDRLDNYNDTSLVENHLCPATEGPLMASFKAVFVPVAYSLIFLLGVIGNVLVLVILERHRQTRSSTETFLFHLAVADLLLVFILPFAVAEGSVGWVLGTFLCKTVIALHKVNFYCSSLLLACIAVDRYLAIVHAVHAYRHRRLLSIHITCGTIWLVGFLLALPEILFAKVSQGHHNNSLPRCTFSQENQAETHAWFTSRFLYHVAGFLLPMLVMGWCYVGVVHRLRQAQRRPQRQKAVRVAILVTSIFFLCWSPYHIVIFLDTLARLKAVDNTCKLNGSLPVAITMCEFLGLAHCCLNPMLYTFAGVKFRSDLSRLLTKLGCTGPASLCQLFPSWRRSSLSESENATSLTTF

CXCR4 = biological target: T4, CXCR4 (Homo sapiens, UniProt P61073); assay: cell-based; conditions: Figure S2a, read-out: CXCR4 activity, ctrl+ = 100
T4 construct: expressed in transfected cells; host or cells: U87, transient cotransfection of pNBe vectors

ACKR4 = biological target: T5, ACKR4 (Homo sapiens, UniProt Q9NPB9); assay: Figure S2a opioid peptide screen on chemokine receptors; conditions: read-out: ACKR4 activity, ctrl+ = 100, Figure S2a
T5 sequence (Q9NPB9 1-350): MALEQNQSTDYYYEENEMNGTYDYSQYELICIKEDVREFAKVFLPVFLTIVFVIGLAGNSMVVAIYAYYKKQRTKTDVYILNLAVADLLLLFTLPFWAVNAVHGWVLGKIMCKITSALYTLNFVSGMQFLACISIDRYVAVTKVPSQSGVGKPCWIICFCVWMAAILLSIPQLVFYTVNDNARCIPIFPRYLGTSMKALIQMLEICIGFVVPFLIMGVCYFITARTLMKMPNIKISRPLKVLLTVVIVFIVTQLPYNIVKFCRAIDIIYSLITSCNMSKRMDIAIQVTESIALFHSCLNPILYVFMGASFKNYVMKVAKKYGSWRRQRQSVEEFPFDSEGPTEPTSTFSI

CXCR2 = biological target: T6, CXCR2 (Homo sapiens, UniProt P25025); assay: as above; assay type: cell-based
T6 construct: expressed in transfected cells
T6 sequence (P25025 1-360): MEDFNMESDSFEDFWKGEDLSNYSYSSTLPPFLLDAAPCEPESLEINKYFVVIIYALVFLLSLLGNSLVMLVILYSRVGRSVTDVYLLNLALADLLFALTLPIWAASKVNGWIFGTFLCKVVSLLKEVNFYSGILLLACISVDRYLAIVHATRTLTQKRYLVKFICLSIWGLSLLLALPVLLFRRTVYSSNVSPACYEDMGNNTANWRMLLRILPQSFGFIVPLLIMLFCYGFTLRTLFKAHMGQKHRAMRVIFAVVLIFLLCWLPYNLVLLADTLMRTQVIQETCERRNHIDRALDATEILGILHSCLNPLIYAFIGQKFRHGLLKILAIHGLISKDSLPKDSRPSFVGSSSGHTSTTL

CXCR3B = biological target: T7, CXCR3B (Homo sapiens, UniProt P49682); assay: as above; assay type: cell-based
T7 construct: expressed in transfected cells; host or cells: U87 cells
T7 sequence (P49682 1-415 isoform P49682-2): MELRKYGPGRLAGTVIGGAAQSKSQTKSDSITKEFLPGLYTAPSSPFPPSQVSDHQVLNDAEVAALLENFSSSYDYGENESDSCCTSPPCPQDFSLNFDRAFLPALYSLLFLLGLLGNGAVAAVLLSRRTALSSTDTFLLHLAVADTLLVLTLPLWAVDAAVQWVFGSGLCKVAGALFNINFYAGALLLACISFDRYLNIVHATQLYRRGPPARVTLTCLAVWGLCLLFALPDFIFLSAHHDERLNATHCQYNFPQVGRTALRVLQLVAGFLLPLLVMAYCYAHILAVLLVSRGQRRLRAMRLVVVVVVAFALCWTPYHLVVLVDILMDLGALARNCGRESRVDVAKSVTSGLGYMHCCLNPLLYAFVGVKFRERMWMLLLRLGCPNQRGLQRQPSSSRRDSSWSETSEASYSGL

[1] = replicate 1, read-out: CCR1 activity, ctrl+ = 100
[2] = replicate 2, read-out: CCR1 activity, ctrl+ = 100
[3] = replicate 3, read-out: CCR1 activity, ctrl+ = 100
[4] = replicate 1, read-out: CCR5 activity, ctrl+ = 100
[5] = replicate 2, read-out: CCR5 activity, ctrl+ = 100
[6] = replicate 3, read-out: CCR5 activity, ctrl+ = 100
[7] = replicate 1, read-out: CXCR5 activity, ctrl+ = 100
[8] = replicate 2, read-out: CXCR5 activity, ctrl+ = 100
[9] = replicate 3, read-out: CXCR5 activity, ctrl+ = 100
[10] = replicate 1, read-out: CXCR2 activity, ctrl+ = 100
[11] = replicate 2, read-out: CXCR2 activity, ctrl+ = 100
[12] = replicate 3, read-out: CXCR2 activity, ctrl+ = 100
[13] = replicate 1, read-out: CXCR3B activity, ctrl+ = 100
[14] = replicate 2, read-out: CXCR3B activity, ctrl+ = 100
[15] = replicate 3, read-out: CXCR3B activity, ctrl+ = 100

T4 sequence (P61073 whole entry): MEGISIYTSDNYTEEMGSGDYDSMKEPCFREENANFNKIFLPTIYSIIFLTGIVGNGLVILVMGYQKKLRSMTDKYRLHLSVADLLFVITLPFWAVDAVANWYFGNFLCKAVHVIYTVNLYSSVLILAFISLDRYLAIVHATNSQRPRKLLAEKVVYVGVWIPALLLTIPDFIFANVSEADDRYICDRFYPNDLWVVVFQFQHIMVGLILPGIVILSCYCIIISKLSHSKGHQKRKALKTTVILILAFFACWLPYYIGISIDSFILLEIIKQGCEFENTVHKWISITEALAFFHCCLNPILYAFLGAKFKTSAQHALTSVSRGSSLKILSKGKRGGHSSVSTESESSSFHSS
Sequence of CCR8 (P51685 whole entry): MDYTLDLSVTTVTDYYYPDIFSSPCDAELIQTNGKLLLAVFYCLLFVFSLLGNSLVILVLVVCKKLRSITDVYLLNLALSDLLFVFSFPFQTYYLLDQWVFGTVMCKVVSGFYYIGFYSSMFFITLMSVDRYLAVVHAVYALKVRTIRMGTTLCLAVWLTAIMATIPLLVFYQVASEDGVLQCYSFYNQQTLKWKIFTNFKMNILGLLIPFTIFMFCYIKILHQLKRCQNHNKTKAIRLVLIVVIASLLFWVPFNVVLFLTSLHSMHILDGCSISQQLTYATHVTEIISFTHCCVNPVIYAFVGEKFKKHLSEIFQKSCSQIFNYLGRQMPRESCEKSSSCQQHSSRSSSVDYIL
T2 sequence (P51681 whole entry): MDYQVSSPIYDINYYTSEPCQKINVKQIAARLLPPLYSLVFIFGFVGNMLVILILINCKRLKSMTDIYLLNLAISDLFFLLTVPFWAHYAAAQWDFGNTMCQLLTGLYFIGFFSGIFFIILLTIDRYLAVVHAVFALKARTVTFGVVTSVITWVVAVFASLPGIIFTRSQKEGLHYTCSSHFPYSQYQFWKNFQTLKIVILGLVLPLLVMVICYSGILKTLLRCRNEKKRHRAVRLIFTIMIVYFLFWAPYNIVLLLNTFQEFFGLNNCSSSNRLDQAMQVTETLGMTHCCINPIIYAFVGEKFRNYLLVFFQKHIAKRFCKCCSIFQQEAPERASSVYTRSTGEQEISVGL

Molecule `CC[C@H](C)[C@H](NC(=O)[C@H](CCCNC(=N)N)NC(=O)[C@H](CCCNC(=N)N)NC(=O)[C@H](CC(C)C)NC(=O)[C@H](Cc1ccccc1)NC(=O)CNC(=O)CNC(=O)[C@@H](N)Cc1ccc(O)cc1)C(=O)N[C@@H](CCCNC(=N)N)C(=O)N1CCC[C@H]1C(=O)N[C@@H](CCCCN)C(=O)N[C@@H](CC(C)C)C(=O)N[C@@H](CCCCN)C(=O)N[C@@H](Cc1c[nH]c2ccccc12)C(=O)N[C@@H](CC(=O)O)C(=O)N[C@@H](CC(N)=O)C(=O)N[C@@H](CCC(N)=O)C(=O)O` [Dynorphin A] has an activation (CCR1; [1]) of -16.7%, an activation (CCR1; [2]) of 4.28% and an activation (CCR1; [3]) of 6.56%. The activation (CCR5; [4]) was 2.19%, the activation (CCR5; [5]) was -1.33% and the activation (CCR5; [6]) was 2.35%. For the same molecule, the activation (CCR8; replicate 1) was -0.0612%, the activation (CCR8; replicate 2) was -35.8% and the activation (CCR8; replicate 3) was -0.797%. It also gave an activation (CXCR5; [7]) of -1.81%, an activation (CXCR5; [8]) of -4.52% and an activation (CXCR5; [9]) of 9.35%. For the same molecule, the activation (CXCR4; replicate 1) was -6.67%, the activation (CXCR4; replicate 2) was -56.8% and the activation (CXCR4; replicate 3) was 36.5%. For the same molecule, the activation (ACKR4; replicate 1) was -2.58%, the activation (ACKR4; replicate 2) was -4.52% and the activation (ACKR4; replicate 3) was 0.188%. It also gave an activation (CXCR2; [10]) of -9.63%, an activation (CXCR2; [11]) of -9.59% and an activation (CXCR2; [12]) of 0.355%. For the same molecule, the activation (CXCR3B; [13]) was -2.77%, the activation (CXCR3B; [14]) was 1.06% and the activation (CXCR3B; [15]) was -1.99%.

In the case of `CC(C)C[C@H](NC(=O)[C@H](CCCCN)NC(=O)[C@H](CCCN=C(N)N)NC(=O)[C@H](C)NC(=O)[C@H](CO)NC(=O)[C@H](CCCCN)NC(=O)[C@H](CCCN=C(N)N)NC(=O)[C@H](C)NC(=O)CNC(=O)[C@@H](NC(=O)[C@H](Cc1ccccc1)NC(=O)CNC(=O)CNC(=O)[C@@H](N)Cc1ccccc1)[C@@H](C)O)C(=O)N[C@@H](C)C(=O)N[C@@H](CC(N)=O)C(=O)N[C@@H](CCC(N)=O)C(=O)O` [Nociceptin], the activation (CCR1; [1]) is reported as -16.6%, the activation (CCR1; [2]) is reported as -34.2% and the activation (CCR5; [4]) is reported as 1.59%. It also gave an activation (CCR5; [5]) of -0.199%, an activation (CCR8; replicate 1) of 27.1% and an activation (CCR8; replicate 2) of -5.76%. It also gave an activation (CXCR5; [7]) of -2.94%, an activation (CXCR5; [8]) of -7.28% and an activation (CXCR4; replicate 1) of 3.24%. The activation (CXCR4; replicate 2) was -19.8%, the activation (ACKR4; replicate 1) was -1% and the activation (ACKR4; replicate 2) was -5.23%. For the same molecule, the activation (CXCR2; [10]) was -2.08%, the activation (CXCR2; [11]) was -14.7% and the activation (CXCR3B; [13]) was -0.23%. It also gave an activation (CXCR3B; [14]) of -6.64%.

`NC(=O)[C@H](Cc1ccccc1)NC(=O)[C@H](Cc1c[nH]c2ccccc12)NC(=O)[C@@H]1CCCN1C(=O)[C@@H](N)Cc1ccc(O)cc1` [Endomorphin-1] showed an activation (CCR1; [1]) of 3.57%, an activation (CCR1; [2]) of -19.2% and an activation (CCR5; [4]) of 0.726%. It also gave an activation (CCR5; [5]) of -0.866%, an activation (CCR8; replicate 1) of -25.5% and an activation (CCR8; replicate 2) of 19.4%. The activation (CXCR5; [7]) was 1.35%, the activation (CXCR5; [8]) was -1.48% and the activation (CXCR4; replicate 1) was 36.3%. It also gave an activation (CXCR4; replicate 2) of 16.8%, an activation (ACKR4; replicate 1) of 3.4% and an activation (ACKR4; replicate 2) of 1.77%. It also gave an activation (CXCR2; [10]) of 0.676%, an activation (CXCR2; [11]) of -3.23% and an activation (CXCR3B; [13]) of -0.0115%. For the same molecule, the activation (CXCR3B; [14]) was 13%.

Work on `CSCC[C@H](NC(=O)[C@H](Cc1ccccc1)NC(=O)CNC(=O)CNC(=O)[C@@H](N)Cc1ccc(O)cc1)C(=O)N[C@@H](CCCNC(=N)N)C(=O)N[C@@H](CCCNC(=N)N)C(=O)N[C@H](C(N)=O)C(C)C` [Adrenorphin] yielded an activation (CCR1; [1]) of -15%, an activation (CCR1; [2]) of 8.25% and an activation (CCR1; [3]) of -9.95%. The activation (CCR5; [4]) was 0.166%, the activation (CCR5; [5]) was -0.467% and the activation (CCR5; [6]) was -0.49%. For the same molecule, the activation (CCR8; replicate 1) was -17.4%, the activation (CCR8; replicate 2) was -15.7% and the activation (CCR8; replicate 3) was -4%. The activation (CXCR5; [7]) was -2.55%, the activation (CXCR5; [8]) was -4.15% and the activation (CXCR5; [9]) was 2.83%. The activation (CXCR4; replicate 1) was -0.233%, the activation (CXCR4; replicate 2) was 14% and the activation (CXCR4; replicate 3) was 3.91%. For the same molecule, the activation (ACKR4; replicate 1) was -1.94%, the activation (ACKR4; replicate 2) was -1.88% and the activation (ACKR4; replicate 3) was -0.895%. For the same molecule, the activation (CXCR2; [10]) was 3.42%, the activation (CXCR2; [11]) was -6.62% and the activation (CXCR2; [12]) was -0.394%. The activation (CXCR3B; [13]) was 3.73%, the activation (CXCR3B; [14]) was 1.55% and the activation (CXCR3B; [15]) was 0.555%.

Reference: article PMC7305236, “The atypical chemokine receptor ACKR3/CXCR7 is a broad-spectrum scavenger for opioid peptides” (Nature Communications, 2020)
